Measured values: patent publication US20240124454A1, “TRICYCLIC COMPOUND AND USE THEREOF” (NANJING ZAIMING PHARMACEUTICAL CO., LTD., priority 2020, published 2024)
pIC50: −log10 of the molar value.

molecular target: hERG potassium channel (Homo sapiens (Human), UniProt Q12809); test: hERG inhibitory activity, manual patch-clamp in HEK293 cells; type: cell-based; settings: HEK293 stably expressing hERG
Description: Test Example 8. Assay for hERG Inhibitory Activity of Compound of Present Application
The inhibition of hERG activity by the compounds of the present application was determined using the following method.
I. Experimental materials and instruments • 1. Dialyzed fetal bovine serum Shanghai Bohan Biotechnology Co., Ltd (BS-0005-500) • 2. DMEM culture medium Thermo Fisher Scientific (China) Co., Ltd. (10569) • 3. HEPES Thermo Fisher Scientific (China) Co., Ltd. (15630080) • 4. Trypsin Thermo Fisher Scientific (China) Co., Ltd. (2192509) • 5. Penicillin-streptomycin solution Thermo Fisher Scientific (China) Co., Ltd. (15140-122) • 6. MEM non-essential amino acid solution Thermo Fisher Scientific (China) Co., Ltd. (11140) • 7. Geneticin (G418) Thermo Fisher Scientific (China) Co., Ltd. (11811031) • 8. Blasticidin Thermo Fisher Scientific (China) Co., Ltd. (R21001) • 9. PolylysineThermo Fisher Scientific (China) Co., Ltd. (P4832) • 10. Dofetilide Beijing Express Technology Co., Ltd. (D525700) • 11. Doxycycline Sigma-Aldrich (Shanghai) Trading Co., Ltd. (D9891) • 12. Carbon dioxide incubator Thermo Fisher Scientific (China) Co., Ltd. (371) • 13. Puller Sutter Company, U.S. (P-97) • 14. Micromanipulator Siskiyou Company, U.S. (MC1000e) • 15. Micromanipulator Sutter Company, U.S. (ROE-200; MP285) • 16. Amplifier HEKA Company, Germany (EPC10) • 17. Microscope Olympus (China) Co., Ltd. (IX51/71/73) • 18. Perfusion system ALA Company, U.S. (VM8 gravity administration system)
II. Culture of cell lines and cells
HEK293 cells (Cat. No: K1236) stably expressing hERG ion channel were purchased from Invitrogen. The cells were cultured in a culture medium containing 85% DMEM, 10% dialyzed fetal bovine serum, 0.1 mM non-essential amino acid solution, 100 U/mL penicillin-streptomycin solution, 25 mM HEPES, 5 μg/mL blasticidin, and 400 μg/mL geneticin. When the cell density increased to 40-80% of the bottom area of the culture dish, the cells were digested with trypsin and subcultured thrice every week. Before the experiment, the cells were cultured at a density of 5×10^5 in 6-cm culture dishes, induced for 48 h with 1 μg/mL doxycycline, and then digested and inoculated on a slide for the subsequent manual patch-clamp experiment.
III. Preparation of solutions
1) Extracellular fluid: 132 mM sodium chloride, 4 mM potassium chloride, 3 mM calcium chloride, 0.5 mM magnesium chloride, 11.1 mM glucose, and 10 mM HEPES (adjusted to pH 7.35 with sodium hydroxide).
2) Intracellular fluid: 140 mM potassium chloride, 2 mM magnesium chloride, 10 mM EGTA, 5 mM ATP-magnesium salt, and 10 mM HEPES (adjusted to pH 7.35 with potassium hydroxide).
Note: the osmotic pressure of the solutions was controlled at 280-300 mOsmol/kg. The solutions were filtered and stored at 4° C. before use. The ATP-magnesium salt was prepared into a 100 mM stock solution, subpackaged, and stored in a −20° C. refrigerator. On the day of the experiment, a certain amount of the stock solution was added into the intracellular fluid right before use.
1) The slides carrying HEK293 cells in the culture dish were placed in the perfusion chamber of the micromanipulation stage.
2) Appropriate cells were placed in the center of the field of view under an Olympus IX51, IX71, or IX73 inverted microscope. The tip of the glass electrode was found using a 10× objective lens and placed in the center of the field of view. The electrode was then moved down using a micromanipulator while the electrode was slowly brought into proximity to the cell using the coarse adjustment.
3) When the electrode was in close proximity to the cell, the lens was switched to a 40× objective lens for observation. The micromanipulator was used for fine adjustment to make the electrode approach the surface of the cell gradually.
4) Negative pressure was applied to form a seal with a resistance higher than 1 GΩ between the electrode tip and the cell membrane. […]

hERG potassium channel, sequence (Q12809 whole entry): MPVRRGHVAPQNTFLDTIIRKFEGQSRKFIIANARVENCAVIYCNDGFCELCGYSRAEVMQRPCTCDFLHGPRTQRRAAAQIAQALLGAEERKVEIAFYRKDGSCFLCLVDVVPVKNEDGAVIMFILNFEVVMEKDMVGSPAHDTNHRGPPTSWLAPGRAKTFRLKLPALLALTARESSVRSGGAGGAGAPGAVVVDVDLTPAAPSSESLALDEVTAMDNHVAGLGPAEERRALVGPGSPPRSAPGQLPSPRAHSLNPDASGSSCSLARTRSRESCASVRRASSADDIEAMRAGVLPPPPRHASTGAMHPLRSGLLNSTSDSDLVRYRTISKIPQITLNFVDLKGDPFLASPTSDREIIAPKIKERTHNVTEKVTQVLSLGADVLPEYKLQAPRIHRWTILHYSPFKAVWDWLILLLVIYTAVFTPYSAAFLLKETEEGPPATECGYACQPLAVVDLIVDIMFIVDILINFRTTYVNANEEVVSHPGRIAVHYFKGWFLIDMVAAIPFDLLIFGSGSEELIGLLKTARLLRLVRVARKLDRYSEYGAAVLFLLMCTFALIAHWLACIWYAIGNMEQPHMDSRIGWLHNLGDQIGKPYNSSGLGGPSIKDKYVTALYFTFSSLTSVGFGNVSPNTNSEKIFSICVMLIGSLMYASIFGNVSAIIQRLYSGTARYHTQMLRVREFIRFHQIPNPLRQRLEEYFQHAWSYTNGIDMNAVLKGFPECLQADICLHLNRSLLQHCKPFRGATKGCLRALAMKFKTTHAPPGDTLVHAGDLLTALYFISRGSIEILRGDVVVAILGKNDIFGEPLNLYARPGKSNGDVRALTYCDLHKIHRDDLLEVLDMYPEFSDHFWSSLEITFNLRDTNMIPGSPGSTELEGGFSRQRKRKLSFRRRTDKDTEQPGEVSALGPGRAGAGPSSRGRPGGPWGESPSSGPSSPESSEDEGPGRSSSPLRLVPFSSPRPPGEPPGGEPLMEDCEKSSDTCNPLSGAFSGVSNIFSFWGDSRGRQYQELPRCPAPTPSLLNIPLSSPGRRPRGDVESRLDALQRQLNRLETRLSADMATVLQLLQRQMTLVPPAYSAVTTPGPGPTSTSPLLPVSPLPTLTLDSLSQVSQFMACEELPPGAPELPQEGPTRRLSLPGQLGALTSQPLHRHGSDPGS

Structure (SMILES) | pIC50
Cc1ncccc1-n1c(=O)c2ncn(C)c2c2ccc(C(F)(F)F)nc21 (atropisomer, axis not shown) [Compound 20, 1-methyl-5-(2-methylpyridin-3-yl)-7-(trifluoromethyl)-1,5-dihydro-4H-imidazo[4,5-c][1,8]naphthyridin-4-one] | < 7.52
Cn1cnc2c(=O)n(-c3cccc(F)c3Cl)c3nc(C(F)(F)F)ccc3c21 (atropisomer, axis not shown) [Compound 25, 5-(2-chloro-3-fluorophenyl)-1-methyl-7-(trifluoromethyl)-1,5-dihydro-4H-imidazo[4,5-c][1,8]naphthyridin-4-one] | < 7.52
Cn1cnc2c(=O)n(-c3cccc(F)c3Cl)c3nc(C(F)(F)F)ccc3c21 (single isomer, unassigned) [Compound 25-P2, 5-(2-chloro-3-fluorophenyl)-1-methyl-7-(trifluoromethyl)-1,5-dihydro-4H-imidazo[4,5-c][1,8]naphthyridin-4-one] | < 7.52
Cn1cnc2c(=O)n(-c3cccnc3C(F)(F)F)c3nc(C(F)(F)F)ccc3c21 (single isomer, unassigned) [Compound 41-P2, 1-methyl-7-(trifluoromethyl)-5-(2-(trifluoromethyl)pyridin-3-yl)-1,5-dihydro-4H-imidazo[4,5-c][1,8]naphthyridin-4-one] | < 7.52
Cn1cnc2c(=O)n(-c3cccnc3C3CC3)c3nc(C(F)(F)F)ccc3c21 (single isomer, unassigned) [Compound 42-P2, 5-(2-cyclopropylpyridin-3-yl)-1-methyl-7-(trifluoromethyl)-1,5-dihydro-4H-imidazo[4,5-c][1,8]naphthyridin-4-one] | < 7.52
Cn1cnc2c(=O)n(-c3cccnc3C3CC3)c3cc(C(F)(F)F)ccc3c21 (single isomer, unassigned) [Compound 48-P2, 5-(2-cyclopropylpyridin-3-yl)-1-methyl-7-(trifluoromethyl)-1,5-dihydro-4H-imidazo[4,5-c]quinolin-4-one] | < 7.52
Cn1cnc2c(=O)n(-c3cccnc3C3CC3)c3cc(Cl)ccc3c21 (single isomer, unassigned) [Compound 49-P2, 7-chloro-5-(2-cyclopropylpyridin-3-yl)-1-methyl-1,5-dihydro-4H-imidazo[4,5-c]quinolin-4-one] | < 7.52
O=c1c2ncoc2c2ccc(C(F)(F)F)nc2n1-c1cccnc1C1CC1 (single isomer, unassigned) [Compound 81-P2, 5-(2-cyclopropylpyridin-3-yl)-7-(trifluoromethyl)oxazolo[4,5-c][1,8]naphthyridin-4(5H)-one] | < 7.52
Cn1cnc2c(=O)n(-c3cccc(F)c3Cl)c3cc(Cl)ccc3c21 [Compound 39, 7-chloro-5-(2-chloro-3-fluorophenyl)-1-methyl-1,5-dihydro-4H-imidazo[4,5-c]quinolin-4-one] | < 7.52
Cc1ncccc1-n1c(=O)c2ncoc2c2ccc(C(F)(F)F)nc21 [Compound 40, 5-(2-methylpyridin-3-yl)-7-(trifluoromethyl)oxazolo[4,5-c][1,8]naphthyridin-4(5H)-one] | < 7.52
Cc1ncccc1-n1c(=O)c2ncn(C)c2c2ccc(C(F)(F)F)cc21 [Compound 45, 1-methyl-5-(2-methylpyridin-3-yl)-7-(trifluoromethyl)-1,5-dihydro-4H-imidazo[4,5-c]quinolin-4-one] | < 7.52
